Laboratory results as given in ChEMBL document CHEMBL1155492, “Evaluation of thieno[3,2-b]pyrrole[3,2-d]pyridazinones as activators of the tumor cell specific M2 isoform of pyruvate kinase” (Bioorg Med Chem Lett, 2010).
Activity calls are given as the source filed them. The calls are words filed in the database; no cut-off is given here.

What was measured:
[1] = molecular target: Pyruvate kinase PKM (Homo sapiens) (UniProt P14618); test: Activation of PKM1 assessed as ATP product formation by luminescent pyruvate kinase-luciferase coupled assay
[2] = molecular target: Pyruvate kinase PKM (Homo sapiens) (UniProt P14618); test: Activation of PKM1 assessed as pyruvate formation by fluorescent pyruvate kinase-lactate dehydrogenase coupled assay
[3] = molecular target: Pyruvate kinase PKM (Homo sapiens) (UniProt P14618); test: Maximum activation of human PKM2 assessed as ATP product formation at 57 uM after 1 hr by luminescent pyruvate kinase-luciferase coupled assay relative to fructose-1,6-bis-phosphate
[4] = test system: O=P(O)(O)OC[C@H]1O[C@@](O)(COP(=O)(O)O)[C@@H](O)[C@@H]1O; test: Activation of human PKM2 assessed as reduction of Km for phosphoenolpyruvate
[5] = test system: O=P(O)(O)OC[C@H]1O[C@@](O)(COP(=O)(O)O)[C@@H](O)[C@@H]1O; test: Activation of human PKM2 assessed as effect on Km for ADP

Chain of Pyruvate kinase PKM (Homo sapiens) (P14618 2-531 limits assumed): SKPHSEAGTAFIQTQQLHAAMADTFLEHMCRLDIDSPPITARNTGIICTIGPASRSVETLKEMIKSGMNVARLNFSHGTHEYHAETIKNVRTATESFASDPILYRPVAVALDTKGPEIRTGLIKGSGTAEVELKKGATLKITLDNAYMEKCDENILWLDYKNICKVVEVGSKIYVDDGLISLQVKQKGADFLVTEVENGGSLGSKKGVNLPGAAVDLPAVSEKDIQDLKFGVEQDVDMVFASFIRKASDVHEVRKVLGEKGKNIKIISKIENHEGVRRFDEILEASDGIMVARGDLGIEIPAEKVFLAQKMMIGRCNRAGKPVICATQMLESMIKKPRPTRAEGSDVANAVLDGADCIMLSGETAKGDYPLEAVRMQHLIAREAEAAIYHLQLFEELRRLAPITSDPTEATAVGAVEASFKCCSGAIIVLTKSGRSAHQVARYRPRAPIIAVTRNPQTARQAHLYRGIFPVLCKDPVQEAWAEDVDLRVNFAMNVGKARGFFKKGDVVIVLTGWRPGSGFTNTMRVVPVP
Chain of Pyruvate kinase PKM (Homo sapiens), P14618 (P14618 whole entry): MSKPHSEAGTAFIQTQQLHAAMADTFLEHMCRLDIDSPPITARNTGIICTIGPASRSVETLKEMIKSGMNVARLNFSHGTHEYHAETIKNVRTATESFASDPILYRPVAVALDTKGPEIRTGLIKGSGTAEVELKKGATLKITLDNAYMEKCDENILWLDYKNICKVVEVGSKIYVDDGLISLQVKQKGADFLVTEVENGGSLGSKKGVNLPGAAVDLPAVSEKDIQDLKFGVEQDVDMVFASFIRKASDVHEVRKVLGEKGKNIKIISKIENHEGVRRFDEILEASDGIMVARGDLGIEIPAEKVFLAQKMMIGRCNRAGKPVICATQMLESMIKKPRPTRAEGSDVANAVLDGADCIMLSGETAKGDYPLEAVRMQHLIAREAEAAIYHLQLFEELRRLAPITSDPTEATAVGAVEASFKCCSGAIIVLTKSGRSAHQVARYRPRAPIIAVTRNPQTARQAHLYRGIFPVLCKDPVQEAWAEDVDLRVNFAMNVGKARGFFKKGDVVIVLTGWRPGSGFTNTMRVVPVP

Row | Molecule | Activity [1] | Activity [2] | Activity [3] | Km [4] [µM] | Km [5] [µM]
1 | Cc1cc2c(s1)c1cnn(Cc3ccccc3)c(=O)c1n2C | inactive | inactive |  |  | 
2 | Cn1c2cc(C=O)sc2c2cnn(Cc3ccccc3F)c(=O)c21 | inactive | inactive | 100% |  | 
3 | Cn1c2cc(C#N)sc2c2cnn(Cc3ccccc3F)c(=O)c21 | inactive | inactive | 84% |  | 
4 | Cc1cc2c(s1)c1cnn(Cc3ccccc3F)c(=O)c1n2C(C)C | inactive | inactive | inactive |  | 
5 | Cc1cc2c(s1)c1cnn(Cc3cccc(F)c3)c(=O)c1n2C | inactive | inactive | 92% |  | 
6 | Cc1cc2c(s1)c1cnn(Cc3ccc(C(F)(F)F)cc3)c(=O)c1n2C | inactive | inactive | 56% |  | 
7 | Cc1cc2c(s1)c1cnn(-c3ccccc3)c(=O)c1n2C | inactive | inactive | inactive |  | 
8 | CCc1cc2c(s1)c1cnn(Cc3ccccc3F)c(=O)c1n2C | inactive | inactive | 105% |  | 
9 | Cn1c2ccsc2c2ncn(Cc3ccccc3F)c(=O)c21 | inactive | inactive | 61% |  | 
10 | CSc1cc2c(s1)c1cnn(Cc3ccccc3F)c(=O)c1n2C | inactive | inactive | 96% |  | 
11 | CCn1c2cc(C)sc2c2cnn(Cc3ccccc3F)c(=O)c21 | inactive | inactive | 96% |  | 
12 | CC(=O)c1cc2c(s1)c1cnn(Cc3ccccc3F)c(=O)c1n2C | inactive | inactive | 108% |  | 
13 | CC(=O)Nc1cc2c(s1)c1cnn(Cc3ccccc3F)c(=O)c1n2C | inactive | inactive | 59% |  | 
14 | Cc1cc2c(s1)c1cnn(Cc3cccc(Cl)c3)c(=O)c1n2C | inactive | inactive | 99% |  | 
15 | Cn1c2cc(S(C)(=O)=O)sc2c2cnn(Cc3ccccc3F)c(=O)c21 | inactive | inactive | inactive |  | 
16 | CCCCCn1ncc2c3sc(C)cc3n(C)c2c1=O | inactive | inactive | 47% |  | 
17 | Cn1c2ccsc2c2cnn(Cc3ccccc3F)c(=O)c21 | inactive | inactive | 93% |  | 
18 | Cc1cc2c(s1)c1cnn(Cc3c(F)cccc3Cl)c(=O)c1n2C | inactive | inactive | 93% |  | 
19 | CC(C)c1cc2c(s1)c1cnn(Cc3ccccc3F)c(=O)c1n2C | inactive | inactive | 106% |  | 
20 | Cc1cc2c(s1)c1cnn(Cc3ccc(Cl)cc3)c(=O)c1n2C | inactive | inactive | 91% |  | 
21 | Pyruvate kinase PKM (Homo sapiens), P14618 |  |  |  | 100 | 100
22 | Cc1cc2c(s1)c1cnn(Cc3ccc(F)cc3F)c(=O)c1n2C | inactive | inactive |  |  | 
23 | Cc1cc2c(s1)c1cnn(Cc3c(F)cccc3F)c(=O)c1n2C | inactive | inactive | 94% |  | 

Row | Molecule | Activity [1] | Activity [2] | Activity [3] | Km [4] [µM] | Km [5] [µM]
24 | Cc1cc2c(s1)c1cnn(Cc3cccc(F)c3F)c(=O)c1n2C | inactive | inactive | 73% |  | 
25 | Cn1c2cc([N+](=O)[O-])sc2c2cnn(Cc3ccccc3F)c(=O)c21 | inactive | inactive |  |  | 
26 | Cc1cc2c(s1)c1cnn(Cc3cccc(C)c3F)c(=O)c1n2C | inactive | inactive | 97% |  | 
27 | Cc1cc2c(s1)c1cnn(Cc3ccccc3F)c(=O)c1n2C | inactive | inactive | 122% |  | 
28 | Cc1cc2c(s1)c1cnn(Cc3ccc(C(F)(F)F)cc3F)c(=O)c1n2C | inactive | inactive | 59% |  | 
29 | Cc1ccc(Cn2ncc3c4sc(C)cc4n(C)c3c2=O)cc1 | inactive | inactive | 84% |  | 
30 | Cc1cc2c(s1)c1cnn(Cc3c(F)c(F)cc(F)c3F)c(=O)c1n2C | inactive | inactive | 59% |  | 
31 | Cn1c2cc(CO)sc2c2cnn(Cc3ccccc3F)c(=O)c21 | inactive | inactive | 103% |  | 
32 | COC(=O)c1cc2c(s1)c1cnn(Cc3ccccc3F)c(=O)c1n2C | inactive | inactive | 70% |  | 
33 | Cn1c2cc(B(O)O)sc2c2cnn(Cc3ccccc3F)c(=O)c21 | inactive | inactive | 101% |  | 
34 | COc1ccc(Cn2ncc3c4sc(C)cc4n(C)c3c2=O)cc1 | inactive | inactive | 96% |  | 
35 | Cc1cc2c(s1)c1c(C)nn(Cc3ccccc3F)c(=O)c1n2C | inactive | inactive | 56% |  | 
36 | COc1cc2c(s1)c1cnn(Cc3ccccc3F)c(=O)c1n2C | inactive | inactive |  |  | 
37 | Cc1cc2c(s1)c1cnn(Cc3ccccc3Cl)c(=O)c1n2C | inactive | inactive | 96% |  | 
38 | Cc1cc2c(s1)c1cnn(Cc3ccc(F)cc3)c(=O)c1n2C | inactive | inactive | 102% |  | 
39 | CC(O)c1cc2c(s1)c1cnn(Cc3ccccc3F)c(=O)c1n2C (stereo not drawn) | inactive | inactive | 120% |  | 
40 | Cc1ccc(Cn2ncc3c4sc(C)cc4n(C)c3c2=O)c(F)c1 | inactive | inactive | 81% |  | 
41 | Cc1cc2[nH]c3c(=O)n(Cc4ccccc4F)ncc3c2s1 | inactive | inactive | inactive |  | 
42 | COc1ccc(Cn2ncc3c4sc(C)cc4n(C)c3c2=O)cc1F | inactive | inactive | 68% |  | 
43 | COc1cccc(Cn2ncc3c4sc([S+](C)[O-])cc4n(C)c3c2=O)c1 (stereo not drawn) | inactive | inactive | 99% |  | 
44 | Cn1c2cc([S+](C)[O-])sc2c2cnn(Cc3ccccc3F)c(=O)c21 (stereo not drawn) | inactive | inactive | 98% |  | 
45 | Cn1c2cc([S+](C)[O-])sc2c2cnn(Cc3cccc(O)c3)c(=O)c21 (stereo not drawn) | inactive | inactive | 102% |  | 
46 | Cc1cc2c(s1)c1cnn(Cc3ccc(F)c(F)c3F)c(=O)c1n2C | inactive | inactive | 69% |  | 
